# Paper PMC3316592, “Functional Analysis of General Odorant Binding Protein 2 from the Meadow Moth, Loxostege sticticalis L. (Lepidoptera: Pyralidae)” (PLoS ONE, 2012)
# Several values for one entry are separate records, joined by “and”; a condition that tells them apart may be missing. Equal values may be shown once. Entries after “also recorded” stand apart in the source; their conditions may differ. Read-outs that look alike come from different tables or passages of the source.
# Experiments:
# recombinant LstiGOBP2 = recombinant LstiGOBP2 (Loxostege sticticalis, UniProt C6ZDA6); assay: biochemical; format: binding; conditions: for binding to LstiGOBP2 (in words): competitive displacement of 1-NPN
# Description: Fluorescence spectra were recorded in a right angle configuration on a Lengguang 970 CRT spectrofluorimeter (Shanghai Jingmi, China) at room temperature using a 1-cm light path fluorimeter quartz cuvette. Slit widths of 10 nm were selected for both excitation and emission. The spectra data were processed using 970 CRT 2.0l software.
# N-phenyl-1-naphthylamine (1-NPN) was dissolved in methanol to yield a 1 mM stock solution. […] 1-NPN was excited at 337 nm and emission spectra were recorded between 350 and 600 nm. Spectra were recorded with high-speed scanning. All ligands used in competition experiments were dissolved in spectrophotometric-grade methanol. Binding data were collected in three independent measurements.
# Bound ligand was evaluated from the values of fluorescence intensity assuming that the protein was 100% active, with a stoichiometry of 1∶1 (protein∶ligand) at saturation. The K1-NPN values were estimated using Prism 5 (GraphPad Software, Inc.) by nonlinear regression for a unique site of binding. The curves were linearized using Scatchard plots.
# L. sticticalis antennae = assay: Electroantennogram (EAG) recording; parameters: species or system Loxostege sticticalis; conditions: for EAG depolarization / EAG response (in words): 10 mg/ml in hexane; for EAG depolarization: highest EAG responses; for EAG response (in words): adult antennae
# Description: Antennae of adult moths were excised at the base and immediately placed on an EAG Micromanipulator MP-15 (Syntech) platform for EAG. Antennae were attached to two electrode holders with non-drying clay (Spectra 360 Electrode Gel). […] Pure chemicals were diluted with hexane to a final concentration of 10 mg/ml. EAG signals were amplified, monitored, and analyzed with EAG-Pro software (Syntech). The preparation was held in a humidified air stream delivered by a Syntech stimulus controller (CS-55 model; Syntech) at 500 ml/min, to which a stimulus pulse of 40 ml/min was added for […]. Signals were recorded for 10 sec, beginning at 2 sec before the onset of the stimulus pulse. An aliquot (10 µl) of each stimulus was loaded onto a filter paper strip. After each sample was tested, hexane was tested as a control. EAG responses of at least three antennae were recorded.
# LstiGOBP1 = test system: LstiGOBP1; parameters: method as in earlier work; conditions: cited from earlier work
# [1] = at ligand concentration 20 µM, protein 2 µM, 1-NPN probe, read-out: Int (fluorescence intensity as percent of the initial fluorescence)
# [2] = calculated from IC50: Ki = [IC50]/1+[1-NPN]/K1-NPN, read-out: Ki (relative dissociation constant)
# [3] = read-out: Int (fluorescence intensity as percent of the initial fluorescence)
# [4] = protein 2 µM, 1-NPN probe, ligand titrated to 2–50 µM in methanol, read-out: IC50 (concentration of ligand halving the initial fluorescence intensity)
# [5] = IC50 (concentration of ligand halving the initial fluorescence intensity), protein 2 µM, 1-NPN probe, ligand titrated to 2–50 µM in methanol
# [6] = Ki (relative dissociation constant), calculated from IC50: Ki = [IC50]/1+[1-NPN]/K1-NPN
# [7] = read-out: Int (fluorescence intensity as percent of the initial fluorescence), at ligand concentration 20 µM, protein 2 µM, 1-NPN probe
# [8] = at ligand concentration 20 µM, protein 2 µM, 1-NPN probe
# Chain of recombinant LstiGOBP2 (C6ZDA6 entry or part of it): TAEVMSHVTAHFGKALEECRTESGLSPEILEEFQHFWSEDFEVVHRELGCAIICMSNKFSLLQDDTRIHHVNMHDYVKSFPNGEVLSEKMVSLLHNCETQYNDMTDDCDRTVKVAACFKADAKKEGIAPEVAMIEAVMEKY
molecule,measurement,setting,value
"C=CC(C)(O)CCC=C(C)C (single isomer, unassigned; (-)) [(-)-Linalool]",IC50,recombinant LstiGOBP2,28 µM
same,Ki,recombinant LstiGOBP2,16.5 µM
same,activity at 20 µM,recombinant LstiGOBP2; [1],53%
CCCCCCC=O [1-Heptanal],IC50,recombinant LstiGOBP2,24 µM
same,Ki,recombinant LstiGOBP2; [2],14.1 µM
same,activity at 20 µM,recombinant LstiGOBP2; [3],52%
CCCCCCCO [1-Heptanol],IC50,recombinant LstiGOBP2,10.5 µM
same,Ki,recombinant LstiGOBP2; [2],6.2 µM
same,activity at 20 µM,recombinant LstiGOBP2; [3],40%
same,EAG depolarization,L. sticticalis antennae,−1.6 mV
CCCCCC=O [1-Hexanal],IC50,recombinant LstiGOBP2,12.5 µM
same,Ki,recombinant LstiGOBP2,7.3 µM
same,binding to LstiGOBP2 (in words),recombinant LstiGOBP2,high affinities
same,activity at 20 µM,recombinant LstiGOBP2; [3],36%
CCCCCCO [1-Hexanol],IC50,recombinant LstiGOBP2,11 µM
same,Ki,recombinant LstiGOBP2; [2],6.5 µM
same,activity at 20 µM,recombinant LstiGOBP2; [3],42%
"c1ccc(Nc2cccc3ccccc23)cc1 [1-NPN, N-phenyl-1-naphthylamine, reference compound]",Kd,recombinant LstiGOBP2,~1.44 µM
CCCCCCCCC=O [1-Nonanal],activity at 20 µM,recombinant LstiGOBP2; [1],66%
same,Ki,recombinant LstiGOBP2; [2],22.9 µM
same,binding to LstiGOBP2 (in words),recombinant LstiGOBP2,very weak binding affinity
same,IC50,recombinant LstiGOBP2; [4],39 µM
CCCCCCCC=O [1-Octanal],activity at 20 µM,recombinant LstiGOBP2; [1],52%
same,Ki,recombinant LstiGOBP2; [2],14.1 µM
same,IC50,recombinant LstiGOBP2; [4],24 µM
same,EAG depolarization,L. sticticalis antennae,−1.6 mV
C=CC(O)CCCCC (stereo not shown) [1-Octen-3-ol],binding to LstiGOBP1 (in words),LstiGOBP1,present an affinity
same,EAG response (in words),L. sticticalis antennae,strong responses; also recorded: intensive responses
CCCCC=O [1-Pentanal],activity at 20 µM,recombinant LstiGOBP2; [1],46%
same,Ki,recombinant LstiGOBP2; [2],8.2 µM
same,binding to LstiGOBP2 (in words),recombinant LstiGOBP2,high affinities
same,IC50,recombinant LstiGOBP2; [4],14 µM
"CC(C)(C)c1ccc(O)c(C(C)(C)C)c1 [2,4-Di-tert-butylphenol]",IC50,recombinant LstiGOBP2,20 µM
same,Ki,recombinant LstiGOBP2,11.8 µM
same,binding to LstiGOBP2 (in words),recombinant LstiGOBP2,high affinity
same,activity at 20 µM,recombinant LstiGOBP2; [3],50%
same,EAG response (in words),L. sticticalis antennae,weak effects; also recorded: weak response
CC=CCCCO [4-Hexen-1-ol],IC50,recombinant LstiGOBP2,26 µM
same,Ki,recombinant LstiGOBP2,15.3 µM
same,activity at 20 µM,recombinant LstiGOBP2; [1],58%
CC(C)=CCCC(C)O (stereo not shown) [6-Methyl-5-hepten-2-ol],activity at 20 µM,recombinant LstiGOBP2; [1],63%
same,Ki,recombinant LstiGOBP2; [2],16.5 µM
same,IC50,recombinant LstiGOBP2; [4],28 µM
CC(=O)CCC=C(C)C [6-Methyl-5-hepten-2-one],IC50,recombinant LstiGOBP2; [5],28 µM
same,Ki,recombinant LstiGOBP2; [6],16.5 µM
same,activity at 20 µM,recombinant LstiGOBP2; [7],64%
C=C1CC/C=C(\C)CC[C@@H]2[C@@H]1CC2(C)C [(-)-Trans-caryophyllene],IC50,recombinant LstiGOBP2,> 50 µM
same,binding to LstiGOBP2 (in words),recombinant LstiGOBP2,very weak binding affinity
same,activity at 20 µM,recombinant LstiGOBP2; [3],86%
O=Cc1ccccc1 [Benzaldehyde],IC50,recombinant LstiGOBP2; [5],19 µM
same,Ki,recombinant LstiGOBP2; [6],11.2 µM
same,activity at 20 µM,recombinant LstiGOBP2; [7],48%
same,EAG response (in words),L. sticticalis antennae,weak response
c1ccc2scnc2c1 [Benzothiazole],IC50,recombinant LstiGOBP2,22 µM
same,Ki,recombinant LstiGOBP2,12.9 µM
same,activity at 20 µM,recombinant LstiGOBP2; [3],52%
C=C1C2CCC(C2)C1(C)C (stereo not shown) [Camphene],IC50,recombinant LstiGOBP2; [4],23 µM
same,activity at 20 µM,recombinant LstiGOBP2; [3],54%
CC12CCC(CC1=O)C2(C)C (stereo not shown) [Camphor],IC50,recombinant LstiGOBP2,14 µM
same,Ki,recombinant LstiGOBP2; [2],8.2 µM
same,activity at 20 µM,recombinant LstiGOBP2; [3],41%
O=C/C=C/c1ccccc1 [Cinnamaldehyde],IC50,recombinant LstiGOBP2; [5],17 µM
same,Ki,recombinant LstiGOBP2; [6],10 µM
same,activity at 20 µM,recombinant LstiGOBP2; [7],45%
same,EAG response (in words),L. sticticalis antennae,weak response
CCC/C=C\CO [Cis-2-hexen-1-ol],IC50,recombinant LstiGOBP2,24 µM
same,Ki,recombinant LstiGOBP2,14.1 µM
same,activity at 20 µM,recombinant LstiGOBP2; [1],59%
CC/C=C\CCO [Cis-3-hexen-1-ol],IC50,recombinant LstiGOBP2,19 µM
same,Ki,recombinant LstiGOBP2,11.2 µM
same,binding to LstiGOBP2 (in words),recombinant LstiGOBP2,high binding affinities
same,activity at 20 µM,recombinant LstiGOBP2; [3],49%
same,EAG response (in words),L. sticticalis antennae,high EAG response
CC/C=C\CCOC(C)=O [Cis-3-hexenyl acetate],activity at 20 µM,recombinant LstiGOBP2; [1],57%
same,Ki,recombinant LstiGOBP2; [2],17.1 µM
same,IC50,recombinant LstiGOBP2; [4],29 µM
COC(=O)c1ccccc1C(=O)OC [Dimethyl phthalate],IC50,recombinant LstiGOBP2; [5],20 µM and 36 µM
same,Ki,recombinant LstiGOBP2; [6],11.8 µM and 21.2 µM
same,Int (fluorescence intensity as percent of the initial fluorescence),"recombinant LstiGOBP2; at ligand concentration 20 µM, protein 2 µM, 1-NPN probe, 20 µM",64%
same,activity at 20 µM,recombinant LstiGOBP2; [7],50%
CC(C)=CCC/C(C)=C/CO [Geraniol],IC50,recombinant LstiGOBP2; [5],22 µM
same,Ki,recombinant LstiGOBP2; [6],12.9 µM
same,activity at 20 µM,recombinant LstiGOBP2; [7],54%
COC(=O)c1ccccc1O [Methyl salicylate],IC50,recombinant LstiGOBP2,> 50 µM
same,activity at 20 µM,recombinant LstiGOBP2; [3],83%
C=CC(=C)CCC=C(C)C [Myrcene],activity at 20 µM,recombinant LstiGOBP2; [1],56%
same,Ki,recombinant LstiGOBP2; [2],14.7 µM
same,IC50,recombinant LstiGOBP2; [4],25 µM
CCCCCCCCCCCCCCC [Pentadecane],binding to LstiGOBP1 (in words),LstiGOBP1,bind
O=CCc1ccccc1 [Phenyl acetaldchyde],Int (fluorescence intensity as percent of the initial fluorescence),recombinant LstiGOBP2; [8],50%
same,Ki,recombinant LstiGOBP2; [2],11.8 µM
same,IC50,recombinant LstiGOBP2; [4],20 µM
C=C(C)[C@H]1CC=C(C)CC1 [R-(+)-Limonene],binding to LstiGOBP1 (in words),LstiGOBP1,do not show affinities
same,binding to LstiGOBP2 (in words),recombinant LstiGOBP2,do not show affinities
same,EAG response (in words),L. sticticalis antennae,strong responses
CCC/C=C/CO [Trans-2-hexen-1-ol],binding to LstiGOBP1 (in words),LstiGOBP1,present an affinity
same,EAG response (in words),L. sticticalis antennae,intensive responses
same,EAG response (in words),L. sticticalis antennae; listed as E-2-hexeno1,strong responses
CCC/C=C/C=O [Trans-2-hexenal],IC50,recombinant LstiGOBP2,10.5 µM
same,Ki,recombinant LstiGOBP2,6.2 µM
same,binding to LstiGOBP2 (in words),recombinant LstiGOBP2,high binding affinities
same,EAG response (in words),L. sticticalis antennae,high EAG response
CCC/C=C/COC(C)=O [Trans-2-hexenyl acetate],activity at 20 µM,recombinant LstiGOBP2; [1],59%
same,Ki,recombinant LstiGOBP2; [2],16.5 µM
same,IC50,recombinant LstiGOBP2; [4],28 µM
CC/C=C/CCCCCCCCCCOC(C)=O [Trans-11-tetradecen-1-yl acetate],activity at 20 µM,recombinant LstiGOBP2; [1],48%
same,Ki,recombinant LstiGOBP2; [2],10.6 µM
same,binding to LstiGOBP2 (in words),recombinant LstiGOBP2,bind strongly; also recorded: high binding affinity
same,IC50,recombinant LstiGOBP2; [4],18 µM
same,EAG response of the male antennae (in words),"L. sticticalis antennae; male antennae, 10 mg/ml",highest among all the volatiles tested
same,EAG response difference between males and females,L. sticticalis antennae; male vs female antennae,significantly different
CC1=CC[C@H](C(C)C)C=C1 [α-Phellandrene],binding to LstiGOBP1 (in words),LstiGOBP1,do not show affinities
same,binding to LstiGOBP2 (in words),recombinant LstiGOBP2,do not show affinities
same,EAG response (in words),L. sticticalis antennae,strong responses
CC(=O)/C=C/C1C(C)=CCCC1(C)C (stereo not drawn) [α-ionone],IC50,recombinant LstiGOBP2; [5],8 µM
same,Ki,recombinant LstiGOBP2; [6],4.7 µM
same,binding to LstiGOBP2 (in words),recombinant LstiGOBP2,strongest affinities
same,activity at 20 µM,recombinant LstiGOBP2; [7],39%
same,EAG response (in words),L. sticticalis antennae,weak effects; also recorded: failed to elicit a strong electrophysiological response
CC(=O)/C=C/C1=C(C)CCCC1(C)C [β-ionone],IC50,recombinant LstiGOBP2; [5],11 µM
same,Ki,recombinant LstiGOBP2; [6],6.5 µM
same,binding to LstiGOBP2 (in words),recombinant LstiGOBP2,strongest affinities
same,activity at 20 µM,recombinant LstiGOBP2; [7],37%
same,EAG response (in words),L. sticticalis antennae,weak effects; also recorded: failed to elicit a strong electrophysiological response
Iso-octanol,Int (fluorescence intensity as percent of the initial fluorescence),recombinant LstiGOBP2; [8],58%
same,Ki,recombinant LstiGOBP2; [2],16.5 µM
same,IC50,recombinant LstiGOBP2; [4],28 µM
